Test results reported in article PMC5515971, “Utility of spherical human liver microtissues for prediction of clinical drug-induced liver injury” (Archives of Toxicology, 2017).
Entries after “also recorded” stand apart in the source; their conditions may differ. Where two headings read alike, the source gives them in different places.

How the values were obtained:
[1] = tested on: 3D human liver microtissues (hLiMT); experiment: Cytotoxicity (cellular ATP, CellTiter-Glo 2.0) in 3D human liver microtissues, 14 day repeat-dose treatment; conditions: for IC50: Homo sapiens, 336 h
[2] = tested on: primary human hepatocytes (PHH); experiment: Cytotoxicity (cellular ATP, CellTiter-Glo) in 2D plated primary human hepatocytes, 48 h treatment; format: cell-based; conditions: for IC50: Hepatocyte, 2D primary human hepatocytes (lot IZT), 48 h treatment, total cellular ATP content, read-out: Geomean IC50;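 on all read-outs here: 384-well plates, luminescence read-out, normalized to vehicle wells with 1% DMSO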
Description: Cryopreserved PHH (lot IZT) were thawed in InVitroGro HT™ thawing media at 37 °C, pelleted, and resuspended. Viable hepatocytes were counted by Trypan blue exclusion and plated in black-walled, BioCoat™ collagen 384-well plates at 13,000 cells/well in InVitroGro CP™ plating media supplemented with 1% Torpedo™ Antibiotic Mix and 5% fetal bovine serum and incubated overnight for 18 h. Cells were then treated with compounds for 48 h diluted in InVitroGro HI™ incubation media containing 1% Torpedo Antibiotic Mix, 10% fetal bovine serum, and 1% DMSO. […] Luminescence was determined on an EnVision™ Muliplate Reader (PerkinElmer, Waltham, MA, USA), and data were normalized to vehicle (1% DMSO) control wells.

[3] = tested on: 3D human liver microtissues (hLiMT)
[4] = parameters: method as in Russmann et al. [2005]; conditions: patients; ref Russmann et al. [2005]; cited from earlier work
[5] = cited from earlier work; for DILI category: clinical, from literature and product labels; for P/N (DILI positive / DILI negative): P = DILI severity categories 1, 2 and 3, N = categories 4 and 5
[6] = tested on: 3D human liver microtissues (hLiMT); experiment: Cytotoxicity (cellular ATP) in 3D human liver microtissues, 5-6 days treatment; format: cell-based; conditions: Homo sapiens; hLiMT, 5/6 days, ATP content; read-out: IC50 SHORT;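 further: Hanging-drop spheroids, seven-point dilution series, re-dosed on day 3, CellTiter-Glo 2.0 luminescence, normalized to 0.5 or 1% DMSO vehicle controls on the same plate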
[7] = ref Chen et al 2016 / Chen et al 2011; cited from earlier work
[8] = cited from earlier work
[9] = tested on: 3D human liver microtissues (hLiMT); experiment: alpha-GST release into hLiMT supernatant (ELISA); format: cell-based; conditions: 336 h, 14 days, release into medium, read-out: IC50 (α-GST assay)
Description: Supernatants from single hLiMT (in triplicates) were analysed for α-GST content using EKF’s α-GST ELISA assay. Briefly, 50 μL of the thawed cell-culture supernatants from single microtissues was transferred into a new v-bottom plate and diluted with 60 μl sample diluent buffer. From this dilution, 100 μL were transferred to the microassay strips. The ELISA was otherwise performed according to the manufacturer’s instructions.

[10] = Clinical DILI severity categorization and DILI pattern; conditions: P = DILI severity categories 1, 2 and 3; N = categories 4 and 5
[11] = tested on: 3D human liver microtissues (hLiMT); experiment: HMGB1 levels in hLiMT supernatant (ELISA); format: cell-based; conditions: 5 days exposure
Description: Supernatants from single hLiMT (in triplicates) were analysed for HMGB1 content using IBLs ELISA assay using the high sensitive range test procedure. Briefly, 50 μL of the thawed cell-culture supernatants from single microtissues or diluted standards were incubated in the microtiter plate along with 50 μL of the diluent buffer for 20-24 h at 37 °C in the dark. The plate was then washed 5 times with 400 µL diluted wash buffer (1:5), blotted dry and 100 µL enzyme conjugate added. After incubation in the dark for 2 h at 25 °C the plate was washed 5 times with 400 µL diluted wash buffer, blotted dry and then 100 µL colour solution added. The plate was incubated for a further 30 min at room temperature prior to the addition of 100 µL stop solution. The absorbance was then determined at 450 nm using an EnVision® plate reader (PerkinElmer, Waltham, MA, USA) within 60 min. The concentration of HMGB1 in the samples was read off the high sensitivity range standard curve obtained from plotting the OD of the standards against the concentration (ng/L).

[12] = tested on: 3D human liver microtissues (hLiMT); experiment: miR-122 levels in hLiMT supernatant (qRT-PCR); format: cell-based; conditions: 5 days exposure
Description: miRNA extraction miRNA was extracted using a miRNeasy kit, following the manufacturer's instructions, and as described by Starkey et al. 2016 with minor modifications. Thirty-eight µL thawed hLiMT supernatant was mixed with 162 µL nuclease-free water and 700 µL QIAzol reagent and then incubated for 5 min at room temperature. Chloroform (100 µL) was added, the samples shaken vigorously for 15 sec and then centrifuged at 12,000 g for 15 min at 4 °C. The supernatant was then mixed with 500 µL 70% ethanol and transferred to a miRNeasy minispin column. The column was centrifuged at >8000 g for 15 sec. The elute was then purified using a MinElute kit
miRNA purification The small RNA elution mixture was applied to the MinElute column 700 µL at a time. […]
qRT-PCR One µl thawed cDNA was mixed with 19 µl miR-122 or cel-lin4 PCR reaction master mix containing 1 µL Taqman^TM miR-122 or cel-lin4 primer small RNA assay (20X), 10 µl Taqman^TM universal PCR master mix II (2X) and 8 µL nuclease free water. Levels of miRNA were measured by the fluorescent signal produced from the Taqman probes on an ABI Prism 7000 (Applied Biosystems). miRNA levels were normalized to levels of cel-lin4 miRNA. Relative miRNA production was determined with the ΔCt method and reported as 2−ΔCt, where Ct is the threshold cycle. Differences in miRNA concentration were expressed as fold changes relative to control.

BSEP transporter = tested on: BSEP transporter; parameters: method as in Kenna et al. [2015]; conditions: ref Kenna et al. [2015]; cited from earlier work
[13] = Hepatocyte, read-out: Geomean IC50 [µM]
[14] = Table 1, ref Garside et al. (2014)
[15] = clinical DILI severity category, 1-5
[16] = table S-4, ref Garside et al. 2014
[17] = human Cmax total, used for IC50/Cmax
[18] = human total plasma Cmax, ref literature values
[19] = table S-5, ref Garside et al. 2014

Question: Which results are given for `Nc1c2c(nc3ccccc13)CCCC2` [Tacrine]?
Answer: IC50 [1, 13]: ~69.6 µM; IC50 [2]: 106 µM; Geomean IC50/cmax [3]: 696.2

Question: Which results are given for `CC(C)c1nc(N(C)S(C)(=O)=O)nc(-c2ccc(F)cc2)c1/C=C/[C@@H](O)C[C@@H](O)CC(=O)O` [Rosuvastatin]?
Answer: mild, transient elevations of plasma enzyme levels [4]: 1–3%; DILI severity category [5, 14]: 3: Low clinical DILI concern (N = 23); DILI severity category [5, 15]: 3. Low Clinical DILI Concern; DILI category ([5]; ref Garside et al. 2014): 3. Low Clinical DILI Concern; DILI severity category [5, 16]: 3; IC50 [1, 13]: 7.8 µM; IC50 [6]: 34.2 µM; FDA DILI Classification DILI severity score [7]: 3; LTKB DILI classification [7]: less DILI concern; Cmax [8, 17]: 10 nM; Cmax [8, 18]: 10 nM; IC50 [2]: > 100 µM

Question: Which results are given for `CC(COc1ccccc1)N(CCCl)Cc1ccccc1` (stereo not drawn) [Phenoxybenzamine]?
Answer: IC50 [1, 13]: > 25 µM; Cmax [8, 18]: 200 nM; IC50 [2]: > 50 µM; Geomean IC50/cmax [3]: > 126.9

Question: With `CCc1nn(CCCN2CCN(c3cccc(Cl)c3)CC2)c(=O)n1CCOc1ccccc1` [Nefazodone] as the molecule, how does the IC50 [9] read?
Answer: 48.5 µM

Question: And the DILI severity category [5, 14]?
Answer: 1: Severe clinical DILI (N = 23)

Question: What about the DILI severity category [5, 15] of the same molecule?
Answer: 1. Severe Clinical DILI

Question: And the DILI category ([5]; ref Garside et al. 2014)?
Answer: 1. Severe Clinical DILI

Question: And the DILI severity category [5, 16]?
Answer: 1

Question: What about the DILI severity category [5, 19] of the same molecule?
Answer: 1. Severe Clinical DILI

Question: What about the IC50 ([1]; read-out: IC50 (ATP-assay)) of the same molecule?
Answer: ~44.9 µM

Question: And the IC50 ([1]; read-out: IC50 LONG)?
Answer: 29.4 µM

Question: And the IC50 [1, 13]?
Answer: ~29.4 µM

Question: And the “classification at 50× MOS threshold” value ([1]; hLiMT 14 days)?
Answer: hepatotoxic

Question: And the IC50 [6]?
Answer: 25.3 µM

Question: What about the “FDA DILI Classification DILI severity score” value [7] of the same molecule?
Answer: 8

Question: And the “LTKB DILI classification” value [7]?
Answer: most DILI concern

Question: What about the Cmax [8, 17] of the same molecule?
Answer: 4300 nM

Question: What about the Cmax [8, 18] of the same molecule?
Answer: 4260 nM

Question: And the IC50 [2]?
Answer: 36.2 µM

Question: And the “classification at 50× MOS threshold” value ([2]; PHH 48 h)?
Answer: hepatotoxic

Question: Which “P/N (DILI positive / DILI negative)” value [5] does the source give for `Nc1nc(F)nc2c1ncn2[C@@H]1O[C@H](CO)[C@@H](O)[C@@H]1O` [Fludarabine] here?
Answer: N

Question: What about the DILI severity category [5, 14] of the same molecule?
Answer: 4: Enzyme elevations in clinic (N = 16)

Question: What about the DILI severity category [5, 15] of the same molecule?
Answer: 4. Enzyme Elevations in Clinic

Question: What about the DILI category ([5]; ref Garside et al. 2014) of the same molecule?
Answer: 4. Enzyme Elevations in Clinic

Question: What about the IC50 [1, 13] of the same molecule?
Answer: 6.8 µM

Question: What about the “FDA DILI Classification DILI severity score” value [7] of the same molecule?
Answer: 0

Question: What about the “LTKB DILI classification” value [7] of the same molecule?
Answer: no DILI concern

Question: And the Cmax [8, 17]?
Answer: 170 nM

Question: And the Cmax [8, 18]?
Answer: 170 nM

Question: What about the IC50 [2] of the same molecule?
Answer: > 50 µM

Question: And the “Geomean IC50/cmax” value [3]?
Answer: 39.9

Question: And the “P/N (DILI positive / DILI negative)” value [10]?
Answer: N

Question: For `CN(C)CCCN1c2ccccc2Sc2ccc(Cl)cc21` [Chlorpromazine], which IC50 [9] is on record?
Answer: 45.4 µM

Question: What about the “release of HMGB1” value [11] of the same molecule?
Answer: dose-dependent release

Question: What about the DILI severity category [5, 14] of the same molecule?
Answer: 3: Low clinical DILI concern (N = 23)

Question: And the DILI severity category [5, 15]?
Answer: 3. Low Clinical DILI Concern

Question: What about the DILI category ([5]; ref Garside et al. 2014) of the same molecule?
Answer: 3. Low Clinical DILI Concern

Question: And the DILI severity category [5, 16]?
Answer: 3

Question: What about the DILI severity category [5, 19] of the same molecule?
Answer: 3. Low Clinical DILI Concern

Question: And the IC50 ([1]; read-out: IC50 (ATP-assay))?
Answer: 7 µM

Question: What about the IC50 ([1]; read-out: IC50 LONG) of the same molecule?
Answer: 7.1 µM

Question: What about the IC50 [1, 13] of the same molecule?
Answer: ~7.4 µM

Question: What about the IC50 [6] of the same molecule?
Answer: 10.9 µM

Question: And the “release of miR-122” value [12]?
Answer: dose-dependent release

Question: What about the “FDA DILI Classification DILI severity score” value [7] of the same molecule?
Answer: 2

Question: What about the “LTKB DILI classification” value [7] of the same molecule?
Answer: less DILI concern

Question: And the Cmax [8, 17]?
Answer: 940 nM

Question: And the Cmax [8, 18]?
Answer: 940 nM

Question: What about the IC50 [2] of the same molecule?
Answer: 19.2 µM

Question: For `COC(c1ccccc1)(c1ccccc1)[C@H](Oc1nc(C)cc(C)n1)C(=O)O` [Ambrisentan], which “P/N (DILI positive / DILI negative)” value [5] is on record?
Answer: N

Question: What about the DILI severity category [5, 14] of the same molecule?
Answer: 5: No DILI (N = 25)

Question: What about the DILI severity category [5, 15] of the same molecule?
Answer: 5. No DILI

Question: What about the DILI category ([5]; ref Garside et al. 2014) of the same molecule?
Answer: 5. No DILI

Question: What about the IC50 [1, 13] of the same molecule?
Answer: > 100 µM

Question: And the cytotoxicity ([1]; hLiMT 14 days, in words)?
Answer: did not detect cytotoxicity; also recorded: not cytotoxic

Question: What about the “FDA DILI Classification DILI severity score” value [7] of the same molecule?
Answer: 7

Question: What about the “LTKB DILI classification” value [7] of the same molecule?
Answer: Ambiguous DILI concern

Question: And the Cmax [8, 17]?
Answer: 790 nM

Question: And the Cmax [8, 18]?
Answer: 790 nM

Question: And the IC50 [2]?
Answer: > 100 µM

Question: What about the “fold lower potency to inhibit BSEP transporter function than bosentan” value (BSEP transporter) of the same molecule?
Answer: 10 fold

Question: What about the “fold lower potency to inhibit BSEP transporter function than sitax(s)entan” value (BSEP transporter) of the same molecule?
Answer: 30 fold

Question: What about the “P/N (DILI positive / DILI negative)” value [10] of the same molecule?
Answer: N

Question: What does the source list for `Cc1c(C)c2c(c(C)c1O)CCC(C)(COc1ccc(CC3SC(=O)NC3=O)cc1)O2` (stereo not drawn) [Troglitazone]?
Answer: IC50 [9]: 14 µM; DILI severity category [5, 14]: 1: Severe clinical DILI (N = 23); DILI severity category [5, 15]: 1. Severe Clinical DILI; DILI category ([5]; ref Garside et al. 2014): 1. Severe Clinical DILI; DILI severity category [5, 16]: 1; DILI severity category [5, 19]: 1. Severe Clinical DILI; IC50 ([1]; read-out: IC50 (ATP-assay)): 10.8 µM; IC50 ([1]; read-out: IC50 LONG): 14.6 µM; IC50 [1, 13]: ~14.6 µM; IC50 [6]: 25.6 µM; FDA DILI Classification DILI severity score [7]: 8; LTKB DILI classification [7]: most DILI concern; Cmax [8, 17]: 6400 nM; IC50 [2]: > 100 µM
